# Measured values from patent EP0985409A1, “Cosmetic use of fatty acids” (Shiseido International France SA, priority 1998, dated 2000).
# pKi: −log10 of the molar value.
# How the values were obtained:
# [1] = biological target: T1, MMP-9 (Homo sapiens, UniProt P14780); assay: Inhibition of MMP enzymatic activity, hydrolysis of fluorescent synthetic substrate; type: biochemical; conditions: MMP-9, Gélatinase B
# Text: (§1) On a démontré l'effet d'inhibition d'acides gras selon l'invention vis à vis de différentes métalloprotéinases matricielles. A cet effet, on a déterminé l'activité enzymatique de ces MMPs en utilisant un substrat synthétique fluorescent, le (7- méthoxycoumarine-4-yl) acétyl-Pro-Leu-Gly-Leu-(3-[2,4-dinitrophényl]-L-2,3-diaminopropionyl)-Ala-ArgNH2. Les MMPs peuvent cliver de façon spécifique la liaison amide qui lie les acides aminés Gly et Leu de ce substrat.
# (§2) L'hydrolyse s'accompagne d'une augmentation sensible de la fluorescence qui peut être suivie et quantifiée à l'aide d'un spectrofluorimètre aux longueurs d'onde choisies. Suite à la rupture de la liaison Gly-Leu, le groupement dinitrophényl ne peut plus masquer la fluorescence du groupement 7-méthoxycoumarine.
# (§3) On a réalisé cette hydrolyse du substrat par la MMP-2 et la MMP-9 en absence ou en présence de différentes concentrations d'acides gras selon l'invention. Les constantes d'inhibition (Ki) de l'activité enzymatique ont pu être ainsi déterminées. Les résultats obtenus figurent dans le Tableau I ci-dessous. Tableau I
# Target sequence in this assay (P14780 94-707): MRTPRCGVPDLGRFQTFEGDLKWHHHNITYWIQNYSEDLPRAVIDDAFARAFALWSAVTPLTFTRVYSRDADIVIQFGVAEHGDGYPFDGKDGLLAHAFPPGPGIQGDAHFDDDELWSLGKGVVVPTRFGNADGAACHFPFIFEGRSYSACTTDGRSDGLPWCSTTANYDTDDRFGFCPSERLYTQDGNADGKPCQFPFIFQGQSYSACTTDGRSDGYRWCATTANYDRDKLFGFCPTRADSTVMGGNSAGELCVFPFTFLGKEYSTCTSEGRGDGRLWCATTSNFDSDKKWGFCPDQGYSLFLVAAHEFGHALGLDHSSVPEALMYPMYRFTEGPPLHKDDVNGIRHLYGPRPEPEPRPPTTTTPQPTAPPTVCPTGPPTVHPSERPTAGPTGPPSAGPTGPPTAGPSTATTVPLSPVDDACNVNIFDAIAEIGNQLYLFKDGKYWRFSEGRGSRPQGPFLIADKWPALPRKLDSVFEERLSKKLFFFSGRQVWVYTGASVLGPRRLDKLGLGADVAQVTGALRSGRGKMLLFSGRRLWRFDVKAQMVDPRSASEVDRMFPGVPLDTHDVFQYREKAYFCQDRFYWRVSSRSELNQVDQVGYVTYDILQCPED
# [2] = biological target: T2, MMP-2 (Homo sapiens, UniProt P08253); assay: as above; type: biochemical; conditions: MMP-2, Gélatinase A
# T2 sequence (P08253 110-660): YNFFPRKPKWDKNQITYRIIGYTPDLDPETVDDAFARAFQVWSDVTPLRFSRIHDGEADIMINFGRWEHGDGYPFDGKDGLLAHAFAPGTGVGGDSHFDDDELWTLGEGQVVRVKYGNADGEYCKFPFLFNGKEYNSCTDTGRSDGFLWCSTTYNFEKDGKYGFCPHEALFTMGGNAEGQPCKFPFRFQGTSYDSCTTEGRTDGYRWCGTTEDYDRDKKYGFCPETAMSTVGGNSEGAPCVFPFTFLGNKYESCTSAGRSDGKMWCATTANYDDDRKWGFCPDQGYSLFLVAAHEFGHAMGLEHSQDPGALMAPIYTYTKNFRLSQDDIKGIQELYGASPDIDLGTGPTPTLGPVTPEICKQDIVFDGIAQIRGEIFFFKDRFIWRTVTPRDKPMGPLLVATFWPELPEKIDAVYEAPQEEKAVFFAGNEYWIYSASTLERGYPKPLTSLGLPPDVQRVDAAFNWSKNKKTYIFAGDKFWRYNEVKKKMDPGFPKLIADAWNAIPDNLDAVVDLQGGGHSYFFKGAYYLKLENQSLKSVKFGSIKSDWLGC
# Text: as §1, §2, §3
# [3] = biological target: T2, MMP-2; assay: Ex vivo inhibition of enzyme activity on human skin sections: collagen bundle hydrolysis, enzyme pre-incubated with fatty acid; type: biochemical, humaine; parameters: L'enzyme sous sa forme activée a été incubée pendant 15 min; conditions: for hydrolyse des trousseaux collagéniques (observation): MMP-2 pre-incubated with fatty acid; for inhibition at 1 µM / inhibition at 10 µM: hydrolysis of collagen bundles by MMP-2, human skin sections, read-out: % d'inhibition
# Experimental: (§4) Les études ex vivo ont été réalisées sur des coupes de peau humaine issues de prépuces d'enfants âgés de 10 à 24 mois. Les coupes mises en oeuvre étaient des coupes de congélation de 8 µm d'épaisseur, sériées.
# (§5) L'effet inhibiteur de l'activité enzymatique a été déterminé de la manière suivante : les enzymes testées étaient les suivantes : MMP-2, MMP-9 ou élastase leucocytaire. L'enzyme sous sa forme activée a été incubée pendant 15 min avec différentes concentrations d'acides gras selon l'invention, puis la solution contenant l'enzyme et l'inhibiteur a été déposée sur la coupe de peau humaine et incubée 4 à 18 heures à 37°C dans une atmosphère humide.
# (§6) A la fin de l'incubation, les coupes ont été colorées avec des colorants spécifiques. Le colorant de l'élastine est la + catéchine et celui des collagènes est le rouge sirius.
# (§7) Les résultats obtenus ont été déterminés selon le principe de quantification suivant: les fibres élastiques ont été colorées de façon spécifique par la + catéchine, et ont été quantifiées grâce à un système morphométrique précis et automatisé. Les lames ont été observées sous microscope équipé d'une caméra. Les images générées ont été converties en niveaux de gris correspondant aux composants à étudier. Les plus petites particules ne correspondant pas à ces éléments ont été éliminées de l'analyse. Un programme spécifique a permis de calculer ensuite la surface relative occupée par les fibres. Avec les fibres élastiques on a pu calculer l'aire et également le volume occupé par celles-ci, puisque leur longueur est supérieure à leur largeur. L'aire occupée par les trousseaux collagéniques a pu être quantifiée selon la même procédure.
# On a étudié l'activité protéolytique de la MMP-2 sur les collagènes. Lorsque la MMP-2 est ajoutée sur les coupes de peau, on a pu observer une hydrolyse des trousseaux collagéniques, ceux-ci étant moins denses et moins nombreux. De plus l'épiderme était décollé. L'hydrolyse était de 34 % environ.
# [4] = biological target: T1, MMP-9; assay: Ex vivo protection of extracellular matrix fibres: skin sections pre-incubated with fatty acid, then enzyme; type: biochemical, humaine; parameters: L'enzyme sous sa forme activée a été incubée pendant 15 min; conditions: then MMP-9; for % de protection: 10 µM
# Text: as §4
# (§8) L'effet protecteur de la matrice extra-cellulaire a été déterminé de la façon suivante : les lames portant les coupes de peau ont été incubées sous agitation douce pendant 4 heures dans l'éthanol pur contenant l'acide gras selon l'invention à la concentration désirée. Puis les coupes ont été rincées et séchées. L'enzyme a alors été déposée sur la coupe, la lame a été mise à incuber en atmosphère humide à 37°C pendant 4 à 18 heures. A la fin de l'incubation, les lames ont été colorées avec les colorants spécifiques de l'élastine ou des collagènes mentionnés plus haut.
# as §7
# Target sequence in this assay (P14780 107-707 limits assumed): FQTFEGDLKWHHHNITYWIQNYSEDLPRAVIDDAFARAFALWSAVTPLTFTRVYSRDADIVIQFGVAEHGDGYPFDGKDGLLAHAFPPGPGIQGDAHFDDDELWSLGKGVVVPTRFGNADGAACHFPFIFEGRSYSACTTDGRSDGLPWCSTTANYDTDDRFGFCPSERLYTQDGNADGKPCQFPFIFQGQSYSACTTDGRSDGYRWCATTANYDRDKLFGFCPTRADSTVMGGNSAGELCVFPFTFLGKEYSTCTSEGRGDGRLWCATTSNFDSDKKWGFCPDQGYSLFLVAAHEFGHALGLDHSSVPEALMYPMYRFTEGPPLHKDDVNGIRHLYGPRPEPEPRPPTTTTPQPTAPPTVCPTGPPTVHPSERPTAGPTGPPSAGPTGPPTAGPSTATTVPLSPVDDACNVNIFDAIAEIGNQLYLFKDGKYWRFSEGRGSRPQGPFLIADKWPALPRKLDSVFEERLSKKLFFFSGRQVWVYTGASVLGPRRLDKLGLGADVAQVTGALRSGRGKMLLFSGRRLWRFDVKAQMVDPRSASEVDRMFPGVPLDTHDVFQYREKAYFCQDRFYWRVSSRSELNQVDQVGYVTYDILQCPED
# Les résultats obtenus figurent dans le Tableau V ci-après : Tableau V
# [5] = biological target: T1, MMP-9; assay: Ex vivo inhibition of enzyme activity on human skin sections: elastic fibre hydrolysis, enzyme pre-incubated with fatty acid; type: biochemical, humaine; parameters: L'enzyme sous sa forme activée a été incubée pendant 15 min; conditions: for inhibition at 1 µM / inhibition at 10 µM: hydrolysis of elastic fibres by MMP-9, human skin sections, read-out: % d'inhibition; for inhibition de l'activité de la MMP-9 (observation): MMP-9 pre-incubated with fatty acid, elastic fibres
# Experimental: as §4, §5, §6, §7
# Target sequence in this assay (P14780 107-707 limits assumed): as above
# Dans le cas de la MMP-9, on a étudié l'hydrolyse des fibres élastiques. En effet, à l'inverse de la MMP-2, la MMP-9 possède essentiellement une activité élastinolytique in situ.
# Au niveau des fibres élastiques matures du derme moyen, on a observé une hydrolyse par la MMP-9. Les fibres élastiques étaient courtes et en paquets au lieu d'être longues et bien individualisées. L'hydrolyse était de 35 % environ. […] La quantification de l'hydrolyse des fibres élastiques par la MMP-9 en fonction des différents traitements a permis de déterminer le pourcentage d'inhibition de l'activité enzymatique. Les résultats obtenus figurent dans le Tableau III suivant : Tableau III
# [6] = biological target: T2, MMP-2; assay: Ex vivo protection of extracellular matrix fibres: skin sections pre-incubated with fatty acid, then enzyme; type: biochemical, humaine; parameters: L'enzyme sous sa forme activée a été incubée pendant 15 min; conditions: then MMP-2; for % de protection: 10 µM
# Text: as §4, §8, §7
# Les trousseaux étaient plus denses, plus épais, leurs extrémités étaient moins effilochées, le réseau apparaissait plus dense. […] La quantification des fibres a permis d'obtenir les résultats figurant dans le Tableau IV suivant : Tableau IV
# [7] = biological target: MMP-3 (Homo sapiens, UniProt P08254); assay: Inhibition of MMP enzymatic activity, hydrolysis of fluorescent synthetic substrate; type: biochemical; conditions: MMP-3, Stromélysine-1
# Chain of MMP-3 (P08254 100-477): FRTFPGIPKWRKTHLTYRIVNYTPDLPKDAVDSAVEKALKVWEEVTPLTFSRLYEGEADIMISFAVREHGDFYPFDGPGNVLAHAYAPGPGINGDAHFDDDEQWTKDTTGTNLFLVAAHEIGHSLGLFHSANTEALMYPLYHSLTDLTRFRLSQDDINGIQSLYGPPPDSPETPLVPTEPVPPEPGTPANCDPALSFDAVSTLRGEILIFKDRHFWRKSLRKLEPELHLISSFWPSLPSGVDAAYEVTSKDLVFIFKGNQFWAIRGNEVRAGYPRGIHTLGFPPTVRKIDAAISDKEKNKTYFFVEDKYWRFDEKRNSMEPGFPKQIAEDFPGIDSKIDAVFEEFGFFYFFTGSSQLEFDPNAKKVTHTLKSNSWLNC
# [8] = biological target: T3, MMP-1 (Homo sapiens, UniProt P03956); assay: as above; type: biochemical; conditions: MMP-1, Collagénase intersticielle
# T3 sequence (P03956 100-469): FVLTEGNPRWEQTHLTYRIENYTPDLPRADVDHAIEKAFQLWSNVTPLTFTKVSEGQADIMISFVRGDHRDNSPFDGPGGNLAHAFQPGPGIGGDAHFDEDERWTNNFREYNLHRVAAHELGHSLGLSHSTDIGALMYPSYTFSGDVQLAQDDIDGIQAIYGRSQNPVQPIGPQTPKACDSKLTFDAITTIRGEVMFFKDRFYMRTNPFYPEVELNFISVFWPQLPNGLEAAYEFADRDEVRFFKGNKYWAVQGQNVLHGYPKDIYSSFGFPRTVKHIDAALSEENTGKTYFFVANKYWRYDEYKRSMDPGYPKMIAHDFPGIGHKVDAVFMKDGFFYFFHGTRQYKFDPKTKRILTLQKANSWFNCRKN
# [9] = biological target: T4, élastase leucocytaire (Homo sapiens, UniProt P08246); assay: Ex vivo protection of elastic fibres: skin sections pre-incubated with fatty acid, then enzyme; type: biochemical, humaine; conditions: section pre-incubated with fatty acid; degradation of elastic fibres by élastase leucocytaire; concentration not given
# T4 construct: L'enzyme sous sa forme activée a été incubée pendant 15 min
# T4 sequence (P08246 30-267): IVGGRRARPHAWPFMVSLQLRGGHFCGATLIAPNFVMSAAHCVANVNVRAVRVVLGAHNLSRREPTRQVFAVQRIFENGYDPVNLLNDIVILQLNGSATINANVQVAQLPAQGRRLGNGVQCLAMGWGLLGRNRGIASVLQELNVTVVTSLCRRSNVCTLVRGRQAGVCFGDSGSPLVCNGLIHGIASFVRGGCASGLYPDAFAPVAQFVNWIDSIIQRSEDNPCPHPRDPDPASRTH
# Text: as §4, §8
# as §7, with “Un programme spécifique a permis de calculer ensuite la surface relative occupée par les fibres. Avec les fibres élastiques on a pu calculer l'aire et également le volume occupé par celles-ci, puisque leur longueur est supérieure à leur largeur.” left out, “procédure. […]” for “procédure.”
pKi [1],pKi [2],hydrolyse des trousseaux collagéniques (observation) ([3]; 1 µM),inhibition at 1 µM [3] [%],hydrolyse des trousseaux collagéniques (observation) ([3]; 10 µM),inhibition at 10 µM ([3]; 10 µM) [%],inhibition at 1 µM [5] [%],inhibition at 10 µM [5] [%],inhibition de l'activité de la MMP-9 (observation) [5],protection [9] [%],SMILES,% de protection [4] [%],hydrolyse des fibres élastiques (observation) [4],% de protection [6] [%],hydrolyse des trousseaux collagéniques (observation) [6],pKi [7],pKi [8]
5.72,4.62,l'hydrolyse a été diminuée,12,l'hydrolyse était nettement diminuée,56,16,48,inhibe l'activité de celle-ci,,CC/C=C/C=C/C=C/C=C/CCCCCCCC(=O)O [acide trans-parinarique],75,l'hydrolyse des fibres préélastiques du derme superficiel était diminuée,61,hydrolyse des trousseaux collagéniques nettement moins marquées,,
4.85,5.10,,18,inhibait moins l'activité enzymatique,40,10,24,Cette inhibition est retrouvée,58,CC/C=C/C=C/C=C/C=C\CCCCCCCC(=O)O [acide cis-parinarique],,,,,,

SMILES,pKi [1],pKi [2],hydrolyse des trousseaux collagéniques (observation) ([3]; 1 µM),inhibition at 1 µM [3] [%],hydrolyse des trousseaux collagéniques (observation) ([3]; 10 µM),inhibition at 10 µM ([3]; 10 µM) [%],inhibition at 1 µM [5] [%],inhibition at 10 µM [5] [%],inhibition de l'activité de la MMP-9 (observation) [5],protection [9] [%],% de protection [4] [%],hydrolyse des fibres élastiques (observation) [4],% de protection [6] [%],hydrolyse des trousseaux collagéniques (observation) [6],pKi [7],pKi [8]
CCCCCCCC/C=C/CCCCCCCC(=O)O [acide élaïdique],5.24,5.37,,,,,,,,,98,l'hydrolyse des fibres élastiques matures du derme moyen par la MMP-9 était nettement diminuée,32,La même constatation a pu être faite,5.74,5.57
